We go through 1 compound from US8252832B2, “Kinesin inhibitors as cancer therapeutics” (Novartis AG, priority 2007, dated 2012).

The test system of assay [1] is primary blast cells from AML patients. Description: Cell cycle analysis using propidium iodide staining, AML blasts. The note with it: 0.2 and 2 nM. Format: cell-based, human. The procedure:
Primary blast cells from AML patients were tested for sensitivity to compound IIa as shown below. Frozen AML blasts from peripheral blood were obtained from AllCell LLC. (Emeryville, Calif.). Three frozen vials containing ˜1×10^7 PBMCs were purchased. Peripheral blood mononuclear cells (PBMCs) from three newly diagnosed AML patients with a high percentage of blasts (#06-188, 80%; #06-366, 88%; #06-503, 73%) were cultured for several weeks and treated with the KSP inhibitors. The vials were rapidly thawed and the cells were cultured in Iscove's DMEM supplemented with 10% FBS and the following cytokines all at 10 ng/ml: GM-CSF, G-CSF, SCF, IL-3, and IL-6 (all from R&D Systems). Three assays were performed on the cells as follows: • CellTiter-Glo® assay on AML blasts. PBMCs containing AML blasts were seeded in 96-well plates (5000/well) and treated with various concentrations of the compound IIa (10 pM to 10 nM) for 48 hours before cells survival was measured as described above. GI50 values (nM) were calculated as for cell lines. • Cell cycle analysis using propidium iodide staining. […] The DNA content of the fixed and stained cells was analyzed by the BD FACSCalibur flow cytometer using the CellQuest software. • Colony formation assay in methylcellulose containing medium. […] Colonies were counted under a microscope after 2 weeks. […]

In a further assay the test system is T47-D. Put plainly: LDH release assay. The format is cell-based. The settings on record: Homo sapiens, T47D. An excerpt:
(§1) Identification of tumor types that are the most sensitive to the KSP inhibitors of the present invention can be accomplished using an unbiased approach that uses several cell-based assays. The assays chosen were as follows: • CellTiter-Glo®. This is an assay designed to measure ATP concentration in a cell culture, and can be correlated to cell number. Briefly CellTiter-Glo® (Promega Corporation) is a homogeneous method using the single CellTiter-Glo® reagent to detect ATP wherein ATP in the assay drives the activity of a thermostable luciferase to create a luminescent signal which can then be measured and correlated with the number of viable cells. Briefly, for adherent cells, 1,000 to 5,000 cells/well were plated in 96-well plates (100 μl/well) and let to adhere for 24 hours before being treated with drug. For non-adherent cells, 1,000 to 10,000 cells/well were plated in 96-well plates (100 μl/well) and immediately treated with drug. Drug dilutions were prepared in DMSO at 1000 times the final concentration. These dilutions were then diluted 1/100 in growth media before being added to the cells (11 μl/well) to achieve the desired final concentration. After 48 h in a 37° C. tissue culture incubator, the plates were processed for the CellTiter-Glo®assay according to the manufacturer's instructions. Protocol for a 72 hour cell proliferation assay: The 72 hour assay was performed the same way as the 48 hour assay except for the following modifications: For adherent cells, 500 to 5,000 cells/well were plated in 96-well plates (90 μl/well cell growth media) and left to adhere for 24 hours before being treated with drug. For non-adherent cells, 1,000 to 10,000 cells/well were plated in 96-well plates (90 μl/well cell growth media) and immediately treated with drug. Data values presented represent the concentration of test compound required for a 50% reduction in growth. • LDH release. The Cytotoxicity Detection KitPLUS (LDH) assay (Roche Diagnostics, Manheim, Germany) measures the amount of LDH released in the media by dying cells; LDH catalyzes the conversion of lactate into pyruvate. The enzymatic reaction is coupled to a chemical reaction that uses a tetrazolium salt to form a formazan that is red and can be detected by its absorbance at 490 nm. This assay measures the amount of cell death after drug treatment. Cells were plated at 10,000 cells/well in 96-well plates (100 μl/well). Adherent cells were let to adhere for 24 hours before being treated with drug, whereas non-adherent cells were immediately treated with drug. Drug dilutions were prepared in DMSO at 1000 times the final concentration. These dilutions were then diluted 1/100 in growth media before being added to the cells (11 μl/well) to achieve the desired final concentration. […] The media only values were subtracted from all the data points before analysis. Data values presented correspond to the compound concentration wherein LDH output is at half maximal level. • Caspase-Glo® 3/7. The Caspase-Glo® 3/7 Assay (Promega Corporation) is a homogeneous luminescent assay that measures caspase-3/7 activities. The assay provides a proluminescent caspase-3/7 DEVD-aminoluciferin substrate and a thermostable luciferase in a reagent optimized for caspase-3/7 activity, luciferase activity and cell lysis. Adding the single Caspase-Glo® 3/7 Reagent results in cell lysis, followed by caspase cleavage of the substrate. This liberates free aminoluciferin, which is consumed by the luciferase, generating a luminescent signal. The signal is proportional to caspase-3/7 activity. Data values presented correspond to the compound concentration wherein caspase 3/7 activity is at half maximal level.
A general note: LDH leaks from cells whose membrane has failed.

In another assay the test system is HT29. Description: LDH release assay. Format: cell-based. The settings on record: Homo sapiens, HT-29.
Text: as §1

The next assay relates to HCT-116. Put plainly: LDH release assay. Format: cell-based. The settings on record: Homo sapiens.
Text: as §1

One may read the EC50 as the midpoint of the concentration-response curve. A higher EC50 goes with a less potent agent. Turning to `CC(C)(C)[C@H](c1nc(-c2cc(F)ccc2F)cn1Cc1ccccc1)N(CC[C@H](N)CF)C(=O)CO` [Compound IIa], the “cell cycle profile, 4N population” value in assay [1] (sample #06-366, 24 hours) is on record as “increase in the number of cells arrested in mitosis”. The “cell cycle profile, <2N population” value in assay [1] (sample #06-366, 48 hours) is “increase in the number of dying cells”. Besides, the half-maximal effective concentration (EC50) with T47-D (48 h) worked out at 0.32 nM; in the assay with T47-D (72 h) it was 0.33 nM; in the assay on HT29 (HT29, 48 h), 0.35 nM; in the assay on HT29 (HT29, 72 h) it was 0.27 nM; in the assay with HCT-116 (HCT-116, 24 h), 0.06 nM; with HCT-116 (HCT-116, 48 h), 0.1 nM. In the assay on HCT-116 (HCT-116, 72 h), the half-maximal effective concentration (EC50) is 0.1 nM.
